Source: patent US9783838B2, “PmST3 enzyme for chemoenzymatic synthesis of alpha-2-3-sialosides” (The Regents of the University of California, priority 2012, dated 2017)
Like-named read-outs stand apart in the source and are kept apart here.

Experiments:
PmST3Δ35-His6 [1] = target: T1, PmST3Δ35-His6 (Pasteurella multocida, UniProt Q9CLP3); type: biochemical
Description: For metal effects, various concentrations (1, 5, 10, or 20 mM) of MgCl2 or MnCl2 were used. Ethylenediaminetetraacetic acid (EDTA) as a chelating agent was used at two concentrations (1 or 10 mM). A reducing reagent dithiothreitol (DTT) was used at two concentrations (1 or 10 mM). Reaction without metal ions, EDTA, or DTT was used as a control. The reaction was quenched by adding 490 μl of pre-chilled acetonitrile:water (20:80). Samples were kept on ice until being analyzed by HPLC equipped with a fluorescent detector (315 nm excitation and 400 nm emission).

PmST2 [2] = settings: up to 20 mM; cited from earlier work
PmST3Δ35-His6 [3] = target: T1, PmST3Δ35-His6; assay: Acceptor substrate specificity of PmST3Δ35-His6; type: biochemical; settings: acceptor 2 mM, CMP-Neu5Ac 2 mM, 37° C., pH 7.5
Description: All reactions were carried out in duplicate at 37° C. in Tris-HCl (200 mM, pH 7.5) containing an acceptor substrate (2 mM), CMP-Neu5Ac (2 mM), and PmST3Δ35-His6 (0.25 μg μl^−1). At 10 min or 4 hr, aliquots of reaction mixture were withdrawn and added to pre-chilled acetonitrile:water (20:80) (for reactions with acceptors containing 2-aminobenzoic acid (2AA) or 4-methylumbelliferone (MU) aglycone) or pre-chilled 95% ethanol (for reactions with acceptor containing Pro-triazole-C14 or pNP aglycone) and samples were kept on ice until being analyzed. Samples with acceptors containing 2AA (315 nm excitation and 400 nm emission) or MU (326 nm excitation and 372 nm emission) were analyzed by HPLC equipped with a fluorescent detector. Samples with acceptor containing Pro-triazole-C14 (214 nm) or pNP (300 nm) aglycone were centrifuged at 13,000 rpm for 5 min and analyzed by capillary electrophoresis (CE) equipped with a photodiode array (PDA) detector as described previously using sodium borate buffer (50 mM, pH 10.2) containing β-cyclcodextrin (20 mM) as a running buffer (Glycobiology, 21:1206-1216).

[4] = tested on: CC(=O)N[C@H]1[C@H]([C@H](O)[C@H](O)CO)O[C@](OP(=O)(O)OC[C@H]2O[C@@H](n3ccc(N)nc3=O)[C@H](O)[C@@H]2O)(C(=O)O)C[C@@H]1O; assay: purified protein, by the assay type; settings: other: apparent, 37° C., Tris-HCl pH 7.5, other substrate fixed at 1 mM
Description: Reactions were carried out in duplicate at 37° C. for 7 min in a total volume of 10 μl in a Tris-HCl buffer (200 mM, pH 7.5).

PmST1 [5] = target: T2, PmST1 (Pasteurella multocida, UniProt Q15KI8); settings: cited from earlier work
PmST2 [6] = settings: cited from earlier work
CstI = settings: truncated monofunctional α2-3-sialyltransferase CstI; cited from earlier work
PmST1 [7] = target: T2, PmST1; settings: cited from earlier work; remark: listed apart in the source
[8] = Storage stability of purified truncated PmST3 proteins; type: physicochemical
Description: To further improve the expression of the soluble and active protein, three C-terminal truncated versions of PmST3 (PmST3Δ20-His6, PmST3Δ35-His6, and PmST3Δ45-His6 with the removal of C-terminal 20, 35, and 45 amino acid residues) were cloned into pET22b(+) vector as C-His6 (SEQ ID NO:37) tagged fusion proteins. […] For PmST3Δ45-His6, the expression of soluble protein was improved to the level of MBP fusion protein (4 mg of purified protein from 1 liter of cell culture by Ni^2+-NTA affinity chromatography). However, PmST3Δ45-His6 seemed to have stability issues. […] Under the same expression conditions, purified PmST3Δ35-His6 can be routinely obtained at a level of 29 mg from cell lysate from one liter of cell culture.

[9] = pH profile of α2-3-sialyltransferase activity; type: biochemical
Description: pH profile of PmST3Δ35-His6. Reactions were carried out in duplicate at 37° C. for 10 min. […] Buffers used were: MES-KOH (pH 4.0-6.5), Tris-HCl (pH 7.0-9.0), and CHES (pH 10.0). Enzymatic reaction was quenched by adding 490 μl of pre-chilled acetonitrile:water (20:80) mixture. The samples were kept on ice until being analyzed by a Shimadzu LC-2010A HPLC system equipped with a membrane on-line degasser, a temperature control unit, and a fluorescence detector (the excitation wavelength was set at 315 nm and the emission wavelength was set at 400 nm) using a reverse phase Premier C18 column (250×4.6 mm I.D., 5 μm particle size, Shimadzu) protected with a C18 guard column cartridge. Mobile phase used was 20% acetonitrile in water.

[10] = Comparison of three Pasteurella multocida sialyltransferases (activities and acceptor use); type: biochemical

O[C@H](CS)[C@H](O)CS (racemic) [DTT, dithiothreitol]
effect on enzyme activity (PmST3Δ35-His6 [1]; DTT 1 or 10 mM): Change of activity was not observed

[Cl-].[Cl-].[Mg+2] [MgCl2]
effect on enzyme activity (PmST3Δ35-His6 [1]; MnCl2 or MgCl2 up to 20 mM): did not affect
effect on enzyme activity (PmST2 [2]): did not affect

O=[N+]([O-])c1ccc(O[C@@H]2O[C@H](CO)[C@H](O)[C@H](O)[C@H]2O)cc1 [GalβpNP, p-nitrophenyl β-galactoside]
% Conv. (10 min) (PmST3Δ35-His6 [3]): <1%
% Conv. (4 h) (PmST3Δ35-His6 [3]): 9.4 ± 0.4%

PmST3Δ35-His6 (Pasteurella multocida subsp. multocida str. Pm70)
Km [4]: 260 ± 10 µM
Vmax [4]: 44 µM/min
kcat [4]: 0.122 ± 0.00167 s⁻¹
kcat/Km [4]: 467 M⁻¹ s⁻¹

O=C(O)CN(CCN(CC(=O)O)CC(=O)O)CC(=O)O [EDTA, Ethylenediaminetetraacetic acid]
effect on enzyme activity (PmST3Δ35-His6 [1]; EDTA up to 10 mM): did not affect

CC(=O)N[C@H]1[C@H]([C@H](O)[C@H](O)CO)O[C@](OP(=O)(O)OC[C@H]2O[C@@H](n3ccc(N)nc3=O)[C@H](O)[C@@H]2O)(C(=O)O)C[C@@H]1O [CMP-Neu5Ac, Cytidine 5′-monophosphate N-acetylneuraminic acid]
Km (PmST1 [5]): 440 µM
Km (PmST2 [6]): 1300 ± 100 µM
Km (CstI): 400 µM

Cc1cc(=O)oc2cc(O[C@@H]3O[C@H](CO)[C@@H](O[C@@H]4O[C@H](CO)[C@H](O)[C@H](O)[C@H]4O)[C@H](O)[C@H]3O)ccc12 [LacβMU, 4-methylumbelliferyl β-lactoside]
% Conv. (10 min) (PmST3Δ35-His6 [3]): 29.9 ± 1.2%
% Conv. (4 h) (PmST3Δ35-His6 [3]): 65.6 ± 1.6%

[Cl][Mn][Cl] [MnCl2]
effect on α2-3-sialyltransferase activity (PmST1 [7]; 5 mM or 10 mM): decreased
effect on α2-3-sialyltransferase activity (PmST1 [7]; 20 mM): almost abolished
effect on enzyme activity (PmST3Δ35-His6 [1]; MnCl2 or MgCl2 up to 20 mM): did not affect
effect on enzyme activity (PmST2 [2]): did not affect

B1: PmST3Δ35-His6: C-terminal 35 residue truncated, C-His6 tagged PmST3 α2-3-sialyltransferase, SEQ ID NO: 11 (protein)
chain: MDKFAEHEIPKAVIVAGNGESLSQIDYRLLPKNYDVFRCNQFYFEERYFLGNKIKAVFFTPGVFLEQYYTLYHLKRNNEYFVDNVILSSFNHPTVDLEKSQKIQALFIDVINGYEKYLSKLTAFDVYLRYKELYENQRITSGVYMCAVAIAMGYTDIYLTGIDFYQASEENYAFDNKKPNIIRLLPDFRKEKTLFSYHSKDIDLEALSFLQQHYHVNFYSISPMSPLSKHFPIPTVEDDCETTFVAPLKENYINDILLPPHFVYEKLGVDKLAAALEHHHHHH
modifications: synthetic C-terminal truncated Pasteurella multocida sialyltransferase 3 (PmST3, Pm1174) C-His-6 tagged fusion protein PmST3delta35-His-6
storage stability (activity) ([8]; after 3 months of storage in 10% glycerol and 25 mM Tris-HCl (pH 7.5) buffer): remained active
optimal pH range for α2-3-sialyltransferase activity ([9]; LacβPro2AA as acceptor): 6.5-9.0
activity outside the optimal pH range ([9]; pH below 6.0 or 10.0): decreased dramatically
Use galactosyl glycolipids as acceptors [10]: Yes
Use galactosyl oligosaccharides as acceptors [10]: Yes
α2-3-sialidase activity [10]: No
α2-3-sialyltransferase activity [10]: Yes
α2-3-trans-sialidase activity [10]: No
α2-6-sialyltransferase activity [10]: No

B2: PmST3Δ45-His6: C-terminal 45 residue truncated, C-His6 tagged PmST3, SEQ ID NO: 12 (protein)
chain: MDKFAEHEIPKAVIVAGNGESLSQIDYRLLPKNYDVFRCNQFYFEERYFLGNKIKAVFFTPGVFLEQYYTLYHLKRNNEYFVDNVILSSFNHPTVDLEKSQKIQALFIDVINGYEKYLSKLTAFDVYLRYKELYENQRITSGVYMCAVAIAMGYTDIYLTGIDFYQASEENYAFDNKKPNIIRLLPDFRKEKTLFSYHSKDIDLEALSFLQQHYHVNFYSISPMSPLSKHFPIPTVEDDCETTFVAPLKENYINDILLVDKLAAALEHHHHHH
modifications: synthetic C-terminal truncated Pasteurella multocida sialyltransferase 3 (PmST3, Pm1174) C-His-6 tagged fusion protein PmST3delta45-His-6
storage stability (precipitation) ([8]; after 3 days of storage at 4° C. after dialysis against 10% glycerol and 25 mM Tris-HCl, pH 7.5): Precipitation was observed
